Like-named read-outs stand apart in the source and are kept apart here.

Here are results for 22 molecules from US9809604B2, “DGAT1 inhibitor and preparation method and use thereof” (Qingdao Huanghai Pharmaceutical Co., Ltd., priority 2013, dated 2017).

This assay addresses T1, DGAT1 (Homo sapiens, UniProt O75907).
T1 sequence (O75907 1-488): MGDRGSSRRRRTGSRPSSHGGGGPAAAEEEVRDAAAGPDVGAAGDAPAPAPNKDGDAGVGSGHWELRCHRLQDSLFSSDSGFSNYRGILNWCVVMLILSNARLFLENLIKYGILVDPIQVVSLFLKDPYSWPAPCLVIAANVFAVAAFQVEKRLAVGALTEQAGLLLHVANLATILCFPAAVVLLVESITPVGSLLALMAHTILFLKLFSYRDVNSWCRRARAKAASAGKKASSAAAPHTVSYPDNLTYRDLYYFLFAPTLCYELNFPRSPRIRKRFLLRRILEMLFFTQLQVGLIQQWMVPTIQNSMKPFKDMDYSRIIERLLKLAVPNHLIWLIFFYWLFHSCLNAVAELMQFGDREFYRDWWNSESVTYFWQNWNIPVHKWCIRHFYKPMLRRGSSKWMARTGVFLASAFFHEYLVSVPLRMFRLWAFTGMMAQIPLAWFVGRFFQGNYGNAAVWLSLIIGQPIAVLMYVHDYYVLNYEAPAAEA
Description: Human DGAT1 IC50 enzyme assay (Flashplate, 14C-labeled acyl-CoA). The class given is biochemical. On the set-up: made in house. As for the experimental part: The ability of compounds to inhibit DGAT enzyme activity is determined by calculating IC50 values of test compounds. Ki values of DGAT1 are calculated as follows: Cheng-Prusoff equation: Ki=IC50/(1+[S]/Km)
(1) Human DGAT1 IC50 (nM) Experiment
Human DGAT1 activity was determined as follows:
Expressing human DGAT1 enzyme, used diacylglycerol and 14C-labeled acyl-CoA as the substrate, choose PE Company Flashplate testing board to build DGAT1 enzyme reaction system. 14C-labeled acyl-CoA binds to diacylglycerol by covalent bonding after enzymology reaction, and generates the product of 14C-labeled triglyceride. 14C-labeled acyl-CoA substrate is dissolved in reaction solution and 14C-labeled triglyceride product combine with phospholipids of Flashplate plate bottom layer, thus effectively separate labeled substrates and products. The radioactive of 14C-labeled triglyceride which is combined with phospholipid layer is counted, and the potencies of DGAT-1 inhibition for the compounds are determined by calculating the IC50 values.

[1] abbreviates: average of first and second, read-out: hDGAT1 IC50(nM) Average.
Where [2] appears, read: first determination, read-out: hDGAT1 IC50(nM) First.
Setting [3] is: second determination, read-out: hDGAT1 IC50(nM) Second.

For `Nc1ncnc2c1C(=O)N(c1ccc(-c3cnn(CCC(=O)O)c3)c(F)c1)CCO2` [Compound 37, 3-(4-(4-(4-amino-5-oxo-7,8-dihydropyrimido[5,4-f][1,4]oxazepin-6(5H)-yl)-2-fluorophenyl)-1H-pyrazol-1-yl) propanoic acid], the IC50 (in general, the concentration needed to halve the response being measured) was determined as 79.6 nM under setting [1], 84.6 nM under setting [2] and 74.5 nM under setting [3].

Regarding `Cc1nn(CCC(=O)O)c(C)c1-c1ccc(N2CCOc3ncnc(N)c3C2=O)cc1Cl` [Compound 38, 3-(4-(4-(4-amino-5-oxo-7,8-dihydropyrimido[5,4-f][1,4]oxazepin-6(5H)-yl)-2-chlorophenyl)-3,5-dimethyl-1H-pyrazol-1-yl)propanoic acid], the IC50 was 50.7 nM under setting [1], 46.5 nM under setting [2] and 55 nM under setting [3].

In the case of `Nc1ncnc2c1C(=O)N(c1ccc(-c3cn(CC(=O)O)nc3C(F)(F)F)cc1)CCO2` [Compound 39, 2-(4-(4-(4-amino-5-oxo-7,8-dihydropyrimido[5,4-f][1,4]oxazepin-6(5H)-yl)phenyl)-3-(trifluoromethyl)-1H-pyrazol-1-yl)acetic acid], the IC50 reads like this: under setting [1], 98.4 nM; under setting [2], 72.9 nM; under setting [3], 124 nM.

`CC(C)(O)Cn1cc(-c2ccc(N3CCOc4ncnc(N)c4C3=O)cc2Cl)cn1` [Compound 42, 4-amino-6-(3-chloro-4-(1-(2-hydroxy-2-methylpropyl)-1H-pyrazol-4-yl)phenyl)-7,8-dihydropyrimido[5,4-f][1,4]oxazepin-5(6H)-one]: the IC50 reads like this: under setting [1], 59.6 nM; under setting [2], 75 nM; under setting [3], 44.2 nM.

For the molecule `Cc1cc(N2CCOc3ncnc(N)c3C2=O)cc(C)c1-c1cn(CC(F)F)nc1C` [Compound 43, 4-amino-6-(4-(1-(2,2-difluoroethyl)-3-methyl-1H-pyrazol-4-yl)-3,5-dimethylphenyl)-7,8-dihydropyrimido[5,4-f][1,4]oxazepin-5(6H)-one], the IC50 stood at 17.6 nM under setting [1], 18.5 nM under setting [2] and 16.7 nM under setting [3].

In the case of `CC(C)(CO)Cn1cc(-c2ccc(N3CCOc4ncnc(N)c4C3=O)cc2Cl)cn1` [Compound 44, 4-amino-6-(3-chloro-4-(1-(3-hydroxy-2,2-dimethylpropyl)-1H-pyrazol-4-yl)phenyl)-7,8-dihydropyrimido[5,4-f][1,4]oxazepin-5(6H)-one], the IC50 by setting is: under setting [1], 45 nM; under setting [2], 59.5 nM; under setting [3], 30.5 nM.

`CC(C)Cn1cc(-c2ccc(N3C[C@@H](C)Oc4ncnc(N)c4C3=O)cc2Cl)cn1` [Compound 45, (R)-4-amino-6-(3-chloro-4-(1-isobutyl-1H-pyrazol-4-yl)phenyl)-8-methyl-7,8-dihydropyrimido[5,4-f][1,4]oxazepin-5(6H)-one]: the IC50 is, setting by setting: under setting [1], 16 nM; under setting [2], 17.4 nM; under setting [3], 14.6 nM.

Regarding `NC(=O)Cn1cc(-c2ccc(N3CCOc4ncnc(N)c4C3=O)cc2Cl)cn1` [Compound 46, 2-(4-(4-(4-amino-5-oxo-7,8-dihydropyrimido[5,4-f][1,4]oxazepin-6(5H)-yl)-2-chlorophenyl)-1H-pyrazol-1-yl)acetamide], the IC50 by setting is: under setting [1], 95.6 nM; under setting [2], 89 nM; under setting [3], 102 nM.

As to `Cc1cc(N2CCOc3ncnc(N)c3C2=O)cc(C)c1-c1cn(CC2(C)COC2)nc1C` [Compound 47, 4-amino-6-(3,5-dimethyl-4-(3-methyl-1-((3-methyloxetan-3-yl)methyl)-1H-pyrazol-4-yl)phenyl)-7,8-dihydropyrimido[5,4-f][1,4]oxazepin-5(6H)-one], the IC50 was 87 nM under setting [1], 65.4 nM under setting [2] and 109 nM under setting [3].

`Nc1ncnc2c1C(=O)N(c1ccc(-c3cnn(CC(=O)O)c3)c(Cl)c1)CCO2` [Compound 56, 2-(4-(4-(4-amino-5-oxo-7,8-dihydropyrimido [5,4-f][1,4]oxaxepin-6(5H)-yl)-2-chlorophenyl)-1H-pyrazol-1-yl)acetic acid]: the IC50 is, setting by setting: under setting [1], 51.8 nM; under setting [2], 65.8 nM; under setting [3], 37.7 nM.

Consider `Cc1cc(N2CCOc3ncnc(N)c3C2=O)ccc1-c1cnn(CC(=O)O)c1` [Compound 57, 2-(4-(4-(4-amino-5-oxo-7,8-dihydropyrimido [5,4-f][1,4]oxazepin-6(5H)-yl)-2-methylphenyl)-1H-pyrazol-1-yl)acetic acid], for which the IC50 came to 91.9 nM under setting [1], 81.3 nM under setting [2] and 102 nM under setting [3].

Consider `Cc1cc(N2CCOc3ncnc(N)c3C2=O)ccc1-c1cnn(C(C(=O)O)C(C)C)c1` (stereo not drawn) [Compound 59, 2-(4-(4-(4-amino-5-oxo-7,8-dihydropyrimido [5,4-f][1,4]oxazepin-6(5H)-yl)-2-methylphenyl)-1H-pyrazol-1-yl)-3-methylbutanoic acid], for which the IC50 worked out at 80.3 nM under setting [1], 54.9 nM under setting [2] and 106 nM under setting [3].

Regarding `CCC(C(=O)O)n1cc(-c2ccc(N3CCOc4ncnc(N)c4C3=O)cc2Cl)cn1` (stereo not drawn) [Compound 61, 2-(4-(4-(4-amino-5-oxo-7,8-dihydropyrimido [5,4-f][1,4]oxazepin-6(5H)-yl)-2-chlorophenyl)-1H-pyrazol-1-yl)butanoic acid], the IC50 under setting [1] was determined as 37.8 nM, the IC50 under setting [2] was 28.2 nM and the IC50 under setting [3] was found to be 47.4 nM.

Regarding `Nc1ncnc2c1C(=O)N(c1ccc(-c3cn(CCC(=O)O)nc3C(F)(F)F)cc1)CCO2` [Compound 62], the IC50 reads like this: under setting [1], 68.2 nM; under setting [2], 57.9 nM; under setting [3], 78.6 nM.

For the molecule `CCC(C(=O)O)n1cc(-c2ccc(N3CCOc4ncnc(N)c4C3=O)cc2C)cn1` (stereo not drawn) [Compound 64, 2-(4-(4-(4-amino-5-oxo-7,8-dihydropyrimido [5,4-f][1,4]oxazepin-6(5H)-yl)-2-methylphenyl)-1H-pyrazol-1-yl)butanoic acid], the IC50 is, setting by setting: under setting [1], 57.6 nM; under setting [2], 38.7 nM; under setting [3], 76.5 nM.

`CC(C)C(C(=O)O)n1cc(-c2ccc(N3CCOc4ncnc(N)c4C3=O)cc2Cl)cn1` (stereo not drawn) [Compound 65, 2-(4-(4-(4-amino-5-oxo-7,8-dihydropyrimido [5,4-f][1,4]oxazepin-6(5H)-yl)-2-chlorophenyl)-1H-pyrazol-1-yl)-3-methylbutanoic acid]: the IC50 runs as follows: under setting [1], 41.5 nM; under setting [2], 39 nM; under setting [3], 44.1 nM.

As for `Cc1cc(N2CCOc3ncnc(N)c3C2=O)cc(C)c1-c1cnn(C(C)(C)C(=O)O)c1` [Compound 66, 2-(4-(4-(4-amino-5-oxo-7,8-dihydropyrimido [5,4-f][1,4]oxazepin-6(5H)-yl)-2,6-dimethylphenyl)-1H-pyrazol-1-yl)-2-methylpropanoic acid], the concentration for half-maximal inhibition (IC50) turned out to be 42.6 nM under setting [1], 47.1 nM under setting [2] and 38.2 nM under setting [3].

On to `Cc1cc(N2CCOc3ncnc(N)c3C2=O)cc(C)c1-c1cnn(CC(=O)O)c1` [Compound 67, 2-(4-(4-(4-amino-5-oxo-7,8-dihydropyrimido [5,4-f][1,4]oxazepin-6(5H)-yl)-2,6-dimethylphenyl)-1H-pyrazol-1-yl)acetic acid], for which the IC50 is, setting by setting: under setting [1], 53.2 nM; under setting [2], 56.1 nM; under setting [3], 50.3 nM.

On to `Cc1cc(N2CCOc3ncnc(N)c3C2=O)cc(C)c1-c1cnn(CCC(=O)O)c1` [Compound 70, 3-(4-(4-(4-amino-5-oxo-7,8-dihydropyrimido [5,4-f][1,4]oxazepin-6(5H)-yl)-2,6-dimethylphenyl)-1H-pyrazol-1-yl)propanoic acid], for which the IC50 under setting [1] turned out to be 20.4 nM, the IC50 under setting [2] was 27.6 nM and the IC50 under setting [3] came out at 13.2 nM.

Regarding `CC(C)(Cn1cc(-c2ccc(N3CCOc4ncnc(N)c4C3=O)cc2Cl)cn1)C(=O)O` [Compound 71, 3-(4-(4-(4-amino-5-oxo-7,8-dihydropyrimido [5,4-f][1,4]oxazepin-6(5H)-yl)-2-chlorophenyl)-1H-pyrazol-1-yl)-2,2-dimethylpropanoic acid], the IC50 under setting [1] was found to be 30.6 nM, the IC50 under setting [2] is 35.9 nM and the IC50 under setting [3] is 25.3 nM.

Take `Cc1cc(N2CCOc3ncnc(N)c3C2=O)cc(C)c1-c1cn(CC(=O)O)nc1C` [Compound 73, 2-(4-(4-(4-amino-5-oxo-7,8-dihydropyrimido [5,4-f][1,4]oxazepin-6(5H)-yl)-2,6-dimethylphenyl)-3-methyl-1H-pyrazol-1-yl)acetic acid]: the IC50 is, setting by setting: under setting [1], 34.4 nM; under setting [2], 24.5 nM; under setting [3], 44.3 nM.

For `Cc1nn(CCC(=O)O)c(C)c1-c1ccc(N2CCOc3ncnc(N)c3C2=O)cc1` [Compound 76], the IC50 under setting [1] is 23.5 nM, the IC50 under setting [2] stood at 14.6 nM and the IC50 under setting [3] is 32.4 nM.
